Assay [1] deals with T1, PRMT5 (Homo sapiens, UniProt O14744).
T1 construct: purchased Viva (custom protein)
In words: PRMT5 biochemical IC50 assay with no cofactor. The note with it: PRMT5, no cofactor; read-out: No Cofactor/rel IC50. The source says:
Table 1 indicates IC50 values (μM) against PRMT5 for exemplary compounds in the presence of SAM as cofactor, with no cofactor, and with MTA as cofactor, respectively (columns 4-6). […] Ki values can be calculated from the IC50 values as described in the Examples section. As detailed in the Examples section, for the assay performed in the presence of SAM, IC50=Ki×1.5 (Ki=IC50/1.5).

Assay [2] has as its system HAP1 MTAP-deleted cell line. In words: Viability assay, MTAP-deleted cell line. The class given is cell-based. The note with it: Homo sapiens, HAP1, viability IC50, MTAP-deleted cell line; read-out: HAP1 MTAP deleted viability. An excerpt: Table 1 additionally indicates IC50 values in a viability assay for the MTAP-deleted cell line (column 10), indicating the effect of treatment with compound on cell survival.

For assay [3], the system named is HAP1 MTAP-deleted cell line. Briefly: SDMA in-cell western assay, HAP1 MTAP-deleted. The assay is classed as cell-based. Conditions: for IC50: Homo sapiens, HAP1, SDMA in-cell western, HAP1 MTAP-deleted, read-out: HAP 1 MTAP deleted IC50; for MTAP intact/deleted ratio: IC50 ratio HAP1 MTAP-intact / HAP1 MTAP-deleted, SDMA in-cell western. The gist of the method:
(§1)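 IC50 values come from SDMA signal quantified by in-cell western in two HAP1 lines, one with native MTAP levels and one lacking MTAP.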

Assay [4] relates to HAP1 MTAP-intact cell line. In words: SDMA in-cell western assay, HAP1 MTAP-intact. The assay is classed as cell-based. Conditions: Homo sapiens, HAP1, SDMA in-cell western, HAP1 MTAP-intact; read-out: MTAP HAP1 intact IC50. The gist of the method: as §1
The target in assay [5] is T1, PRMT5. In words: PRMT5 biochemical IC50 assay with SAM as cofactor. Conditions: PRMT5, SAM as cofactor; read-out: SAM IC50.
The target of assay [6] is T1, PRMT5. Briefly: PRMT5 biochemical IC50 assay with MTA as cofactor. Conditions: PRMT5, MTA as cofactor; read-out: MTA IC50.

T1 sequence (O14744 whole entry): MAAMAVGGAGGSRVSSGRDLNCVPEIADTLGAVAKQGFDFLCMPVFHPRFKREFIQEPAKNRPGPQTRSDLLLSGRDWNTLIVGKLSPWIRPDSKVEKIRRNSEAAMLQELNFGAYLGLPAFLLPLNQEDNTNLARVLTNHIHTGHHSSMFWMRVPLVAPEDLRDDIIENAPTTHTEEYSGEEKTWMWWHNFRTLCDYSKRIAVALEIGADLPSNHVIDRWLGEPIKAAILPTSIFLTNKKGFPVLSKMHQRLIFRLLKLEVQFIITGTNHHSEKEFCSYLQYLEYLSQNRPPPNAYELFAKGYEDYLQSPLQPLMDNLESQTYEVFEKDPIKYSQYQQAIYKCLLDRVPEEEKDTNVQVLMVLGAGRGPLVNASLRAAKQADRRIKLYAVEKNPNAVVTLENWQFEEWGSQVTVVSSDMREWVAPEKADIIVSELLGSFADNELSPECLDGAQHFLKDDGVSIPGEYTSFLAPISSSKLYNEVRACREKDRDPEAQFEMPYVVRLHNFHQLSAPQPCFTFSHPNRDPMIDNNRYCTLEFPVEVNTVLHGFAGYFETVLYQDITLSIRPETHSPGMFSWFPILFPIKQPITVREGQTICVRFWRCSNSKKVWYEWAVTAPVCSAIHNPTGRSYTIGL
T1 sequence (Q9BQA1 whole entry partner): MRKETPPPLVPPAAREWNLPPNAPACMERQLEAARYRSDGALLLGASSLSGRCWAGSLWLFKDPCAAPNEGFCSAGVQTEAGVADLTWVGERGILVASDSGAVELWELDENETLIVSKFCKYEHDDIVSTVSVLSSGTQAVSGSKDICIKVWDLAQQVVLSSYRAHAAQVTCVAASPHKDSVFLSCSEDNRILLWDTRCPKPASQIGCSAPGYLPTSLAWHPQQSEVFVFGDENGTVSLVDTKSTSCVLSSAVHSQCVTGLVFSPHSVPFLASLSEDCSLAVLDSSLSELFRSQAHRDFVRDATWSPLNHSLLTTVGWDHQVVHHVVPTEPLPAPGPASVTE

As to `Cc1cc([C@H]2CC[C@H](C)CN2C(=O)C(=O)Nc2cncc(C(N)=O)c2)ccn1` (single isomer, unassigned) [Compound 534], the IC50 in assay [1] was 50 to 500 nM; in assay [2] it was 1000 to 10000 nM; in assay [3] it was 100 to 1000 nM; in assay [4], over 1000 nM; in assay [5], 50 to 500 nM; in assay [6] it was under 50 nM. The MTAP intact/deleted ratio entry in assay [3] was “A (an IC50 ratio greater than or equal to 10 fold)”.

Take `Cc1cc(NC(=O)C(=O)N2CCCC[C@@H]2c2ccc3[nH]ncc3c2)cnc1N` (single isomer, unassigned) [Compound 535]: the IC50 in assay [1] is over 500 nM; in assay [2], over 10000 nM; in assay [3] it was over 1000 nM; in assay [4], over 1000 nM; in assay [5], over 500 nM; in assay [6], over 500 nM. In assay [3], the MTAP intact/deleted ratio entry is “B (an IC50 ratio greater than or equal to 3 fold but lower than 10 fold)”.

In the case of `COc1ncc(NC(=O)C(=O)N2C[C@@H](C)CC[C@@H]2c2cnc3[nH]ncc3c2)cc1C(N)=O` (single isomer, unassigned) [Compound 537], the IC50 is over 500 nM in assay [1]; over 10000 nM in assay [2]; over 1000 nM in assay [3]; over 1000 nM in assay [4]; over 500 nM in assay [5]; over 500 nM in assay [6]. In assay [3], the MTAP intact/deleted ratio entry was “C (an IC50 ratio of less than 3 fold)”.

In the case of `COc1cc([C@H]2CC[C@H](C)CN2C(=O)C(=O)Nc2cnc(N)c(C)c2)ccn1` (single isomer, unassigned) [Compound 538], the IC50 in assay [1] is over 500 nM; in assay [2], over 10000 nM; in assay [3], over 1000 nM; in assay [4] it was over 1000 nM; in assay [5], over 500 nM; in assay [6], over 500 nM. Moreover, in assay [3], the MTAP intact/deleted ratio result is listed as “B (an IC50 ratio greater than or equal to 3 fold but lower than 10 fold)”.

For the compound `C[C@H]1CC[C@H](c2ccncc2)N(C(=O)C(=O)Nc2cncc(C(N)=O)c2)C1` (single isomer, unassigned) [Compound 539, 5-(2-(5-methyl-2-(pyridin-4-yl)piperidin-1-yl)-2-oxoacetamido)nicotinamide], the IC50 in assay [1] is 50 to 500 nM; in assay [2], 1000 to 10000 nM; in assay [3], under 100 nM; in assay [4], over 1000 nM; in assay [5], 50 to 500 nM; in assay [6], under 50 nM. Besides, the MTAP intact/deleted ratio entry in assay [3] was “A (an IC50 ratio greater than or equal to 10 fold)”.

For the compound `C[C@@H]1CC[C@@H](c2ccncc2)N(C(=O)C(=O)Nc2cncc(C(N)=O)c2)C1` (single isomer, unassigned) [Compound 544, 5-(2-(5-methyl-2-(pyridin-4-yl)piperidin-1-yl)-2-oxoacetamido)nicotinamide], the IC50 in assay [1] was over 500 nM; in assay [2] it was over 10000 nM; in assay [3] it was over 1000 nM; in assay [4], over 1000 nM; in assay [5] it was over 500 nM; in assay [6], over 500 nM. Moreover, the MTAP intact/deleted ratio entry in assay [3] was “C (an IC50 ratio of less than 3 fold)”.

For `COc1cc([C@@H]2CC[C@@H](C)CN2C(=O)C(=O)Nc2cnc(N)c(C)c2)ccn1` (single isomer, unassigned) [Compound 545], the IC50 is under 50 nM in assay [1]; under 1000 nM in assay [2]; under 100 nM in assay [3]; 100 to 1000 nM in assay [4]; 50 to 500 nM in assay [5]; under 50 nM in assay [6]. Also, the MTAP intact/deleted ratio result in assay [3] is given as “B (an IC50 ratio greater than or equal to 3 fold but lower than 10 fold)”.

On to `COc1ncc(NC(=O)C(=O)N2C[C@H](C)CC[C@H]2c2cnc3[nH]ncc3c2)cc1C(N)=O` (single isomer, unassigned) [Compound 546], for which the IC50 in assay [1] is 50 to 500 nM; in assay [2], 1000 to 10000 nM; in assay [3], 100 to 1000 nM; in assay [4], over 1000 nM; in assay [5], 50 to 500 nM; in assay [6], under 50 nM. Moreover, the MTAP intact/deleted ratio entry in assay [3] is on record as “A (an IC50 ratio greater than or equal to 10 fold)”.

Regarding `CC[C@H]1CC[C@H](c2ccccc2)N(C(=O)C(=O)Nc2cncc(C(N)=O)c2)C1` (single isomer, unassigned) [Compound 547], the IC50 was 50 to 500 nM in assay [1]; 1000 to 10000 nM in assay [2]; under 100 nM in assay [3]; over 1000 nM in assay [4]; 50 to 500 nM in assay [5]; under 50 nM in assay [6]. Besides, in assay [3], the MTAP intact/deleted ratio entry is recorded as “A (an IC50 ratio greater than or equal to 10 fold)”.

Regarding `Cc1cc(NC(=O)C(=O)N2C[C@H](C)CC[C@H]2c2ccc(C(F)(F)F)cc2)cnc1N` (single isomer, unassigned) [Compound 548], the IC50 in assay [1] is 50 to 500 nM; in assay [2], under 1000 nM; in assay [3], under 100 nM; in assay [4], under 100 nM; in assay [5], 50 to 500 nM; in assay [6] it was under 50 nM. The MTAP intact/deleted ratio entry in assay [3] is listed as “C (an IC50 ratio of less than 3 fold)”.

In the case of `Cc1cc(NC(=O)C(=O)N2C[C@H](C)CC[C@H]2c2cnc3[nH]ncc3c2)cnc1N` (single isomer, unassigned) [Compound 549], the IC50 in assay [1] is 50 to 500 nM; in assay [2], 1000 to 10000 nM; in assay [3], under 100 nM; in assay [4], 100 to 1000 nM; in assay [5] it was 50 to 500 nM; in assay [6] it was under 50 nM. The MTAP intact/deleted ratio entry in assay [3] is given as “A (an IC50 ratio greater than or equal to 10 fold)”.

For `C[C@@H]1CC[C@@H](c2cnc3[nH]ncc3c2)N(C(=O)C(=O)Nc2cncc(C(N)=O)c2)C1` (single isomer, unassigned) [Compound 550], the IC50 in assay [1] is over 500 nM; in assay [2], over 10000 nM; in assay [3], over 1000 nM; in assay [4], over 1000 nM; in assay [5], over 500 nM; in assay [6] it was over 500 nM. Also, the MTAP intact/deleted ratio entry in assay [3] is listed as “C (an IC50 ratio of less than 3 fold)”.

Consider `Cc1cc([C@H]2CC[C@H](C)CN2C(=O)C(=O)Nc2cnc(N)c(C)c2)ccc1O` (single isomer, unassigned) [Compound 551], for which the IC50 in assay [1] was over 500 nM; in assay [2], over 10000 nM; in assay [3] it was over 1000 nM; in assay [4], over 1000 nM; in assay [5] it was over 500 nM; in assay [6] it was over 500 nM. In addition, in assay [3], the MTAP intact/deleted ratio entry is “C (an IC50 ratio of less than 3 fold)”.

`C[C@H]1CC[C@H](c2cc3cn[nH]c3cc2F)N(C(=O)C(=O)Nc2cncc(C(N)=O)c2)C1` (single isomer, unassigned) [Compound 553]: the IC50 in assay [1] was 50 to 500 nM; in assay [2], 1000 to 10000 nM; in assay [3], 100 to 1000 nM; in assay [4], over 1000 nM; in assay [5], 50 to 500 nM; in assay [6] it was under 50 nM. Besides, in assay [3], the MTAP intact/deleted ratio entry was “A (an IC50 ratio greater than or equal to 10 fold)”.

`Cc1cc(NC(=O)C(=O)N2C[C@H](C)CC[C@H]2[C@H]2CCC[C@H](O)C2)cnc1N` (single isomer, unassigned) [Compound 559]: the IC50 in assay [1] was 50 to 500 nM; in assay [2] it was 1000 to 10000 nM; in assay [3] it was 100 to 1000 nM; in assay [4] it was over 1000 nM; in assay [5], 50 to 500 nM; in assay [6], under 50 nM. Besides, the MTAP intact/deleted ratio entry in assay [3] is listed as “A (an IC50 ratio greater than or equal to 10 fold)”.

Values taken from US11999727B2 (Tango Therapeutics, Inc., priority 2020, dated 2024).
